# In patent publication US20260306527A1, “PRMT INHIBITOR COMPOUNDS AND THE USES THEREOF” (Purdue Research Foundation, priority 2023, published 2026):
# “Also recorded” adds a separate entry of the source. Read-outs that look alike come from different tables or passages of the source.
# Legend:
# Format in all cases: biochemical
# PRMT1 = target: T1, PRMT1 (Homo sapiens, UniProt Q99873); experiment: SAHH-coupled fluorescence assay, inhibition of PRMT1
# T1 construct: made in house
# Method: (§1) A fluorescence-based SAHH-coupled assay was applied to study the inhibition activity of all synthesized compounds on PRMT 1 and 3.
# (§2) The PRMT1 methylation assay was performed under the following conditions in a final well volume of 100 μL: 2.5 mM HEPES (pH=7.0), 25 mM NaCl, 25 μM EDTA, 50 μM TCEP, 0.01% Triton X-100, 5 μM SAHH, 0.1 μM PRMT1, 10 μM AdoMet, and 10 μM ThioGlo4. […] The fluorescence signal was monitored on a BMG CLARIOstar microplate reader with excitation at 400 nm and emission at 465 nm for 15 min. Data were processed using GraphPad Prism software 8.0.
# (§3) Next, the inhibition activity of the library was investigated for five PRMT members from type I PRMTs.
# as §2, with “A fluorescence-based SAHH-coupled assay was applied to determine the inhibition activity of all synthesized compounds on PRMT 1 and 3. The PRMT1” for “The PRMT1”, “software 8.0. All experiments were performed in duplicate.” for “software 8.0.”
# PRMT6 = PRMT6 (Homo sapiens, UniProt Q96LA8); experiment: radioactive assay (Reaction Biology Corp.), inhibition of PRMT6
# Sequence of PRMT6 (Q96LA8 whole entry, species assumed): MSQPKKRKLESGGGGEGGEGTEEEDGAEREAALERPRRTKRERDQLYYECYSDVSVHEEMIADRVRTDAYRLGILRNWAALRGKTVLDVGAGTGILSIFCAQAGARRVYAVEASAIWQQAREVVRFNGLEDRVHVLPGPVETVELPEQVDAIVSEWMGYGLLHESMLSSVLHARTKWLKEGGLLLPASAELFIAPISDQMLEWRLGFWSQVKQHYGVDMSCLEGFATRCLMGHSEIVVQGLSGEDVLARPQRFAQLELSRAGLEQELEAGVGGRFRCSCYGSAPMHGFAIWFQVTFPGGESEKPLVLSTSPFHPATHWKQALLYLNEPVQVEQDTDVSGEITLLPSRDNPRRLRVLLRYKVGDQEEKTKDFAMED
# Method: as §3
# (§4) The PRMT 4, 6 and 8 methylation assays were performed by Reaction Biology corp.
# PRMT4 = target: T2, PRMT4 (Homo sapiens, UniProt Q86X55); experiment: radioactive assay (Reaction Biology Corp.), inhibition of PRMT4
# T2 sequence (Q86X55 1-608): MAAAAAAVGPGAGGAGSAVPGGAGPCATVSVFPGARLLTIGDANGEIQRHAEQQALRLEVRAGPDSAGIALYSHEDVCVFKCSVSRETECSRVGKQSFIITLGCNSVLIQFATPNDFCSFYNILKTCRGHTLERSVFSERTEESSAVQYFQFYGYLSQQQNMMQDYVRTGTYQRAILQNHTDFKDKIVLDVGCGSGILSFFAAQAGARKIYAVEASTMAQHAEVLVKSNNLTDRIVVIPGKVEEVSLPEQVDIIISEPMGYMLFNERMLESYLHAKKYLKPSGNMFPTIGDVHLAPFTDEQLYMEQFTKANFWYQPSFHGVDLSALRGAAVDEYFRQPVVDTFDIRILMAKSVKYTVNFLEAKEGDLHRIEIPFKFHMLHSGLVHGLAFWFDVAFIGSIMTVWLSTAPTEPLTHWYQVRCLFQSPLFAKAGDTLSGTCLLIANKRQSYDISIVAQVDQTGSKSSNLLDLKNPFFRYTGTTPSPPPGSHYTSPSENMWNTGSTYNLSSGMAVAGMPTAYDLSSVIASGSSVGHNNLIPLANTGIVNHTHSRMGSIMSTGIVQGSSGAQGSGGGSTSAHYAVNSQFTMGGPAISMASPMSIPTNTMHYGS
# Method: as §3, §4
# PRMT3 = PRMT3 (Homo sapiens, UniProt O60678); experiment: SAHH-coupled fluorescence assay, inhibition of PRMT3; set-up: PRMT3 (residues 211-531) was cloned into the pET28a-MHL expression vector; tag of the pET28a-MHL vector (not described); made in house; host or cells: Escherichia coli BL21(DE3)
# Sequence of PRMT3 (O60678 211-531): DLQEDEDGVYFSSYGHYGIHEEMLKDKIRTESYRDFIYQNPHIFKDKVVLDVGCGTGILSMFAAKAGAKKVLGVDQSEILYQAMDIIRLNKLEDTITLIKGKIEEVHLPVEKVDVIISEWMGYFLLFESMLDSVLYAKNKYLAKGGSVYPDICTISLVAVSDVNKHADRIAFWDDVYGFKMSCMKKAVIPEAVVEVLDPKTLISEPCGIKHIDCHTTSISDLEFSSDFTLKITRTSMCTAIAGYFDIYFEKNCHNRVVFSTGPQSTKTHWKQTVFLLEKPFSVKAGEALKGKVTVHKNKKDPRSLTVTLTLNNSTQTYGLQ
# Method: as §1
# (§5) The PRMT3 methylation assay was performed under the following conditions in a final well volume of 100 μL: 20 mM Tris (pH=7.5), 0.01% Triton X-100, 5 μM SAHH, 0.25 μM PRMT3, 30 μM AdoMet, and 15 μM ThioGlo4. […] Fluorescence was monitored on a BMG CLARIOstar microplate reader with excitation 380 nm and emission 505 nm. Data were processed by using GraphPad Prism software 8.0. All experiments were performed in duplicate.
# as §3
# as §5, with “8.0.” for “8.0. All experiments were performed in duplicate.”
# PRMT8 = PRMT8 (Homo sapiens, UniProt Q9NR22); experiment: radioactive assay (Reaction Biology Corp.), inhibition of PRMT8
# Sequence of PRMT8 (Q9NR22 whole entry, species assumed): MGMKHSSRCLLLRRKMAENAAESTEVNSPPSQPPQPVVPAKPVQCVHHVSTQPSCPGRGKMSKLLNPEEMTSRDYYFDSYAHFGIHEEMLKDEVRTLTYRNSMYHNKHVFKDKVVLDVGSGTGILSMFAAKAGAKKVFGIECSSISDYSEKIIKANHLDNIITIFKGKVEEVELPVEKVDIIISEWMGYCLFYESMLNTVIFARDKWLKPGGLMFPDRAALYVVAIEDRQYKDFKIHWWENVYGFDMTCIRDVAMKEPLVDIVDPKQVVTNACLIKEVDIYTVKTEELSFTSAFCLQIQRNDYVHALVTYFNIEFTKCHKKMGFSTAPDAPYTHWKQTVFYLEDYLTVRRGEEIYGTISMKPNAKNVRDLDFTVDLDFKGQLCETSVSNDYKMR
# Method: as §3, §4
# T1 sequence (Q99873 whole entry, species assumed): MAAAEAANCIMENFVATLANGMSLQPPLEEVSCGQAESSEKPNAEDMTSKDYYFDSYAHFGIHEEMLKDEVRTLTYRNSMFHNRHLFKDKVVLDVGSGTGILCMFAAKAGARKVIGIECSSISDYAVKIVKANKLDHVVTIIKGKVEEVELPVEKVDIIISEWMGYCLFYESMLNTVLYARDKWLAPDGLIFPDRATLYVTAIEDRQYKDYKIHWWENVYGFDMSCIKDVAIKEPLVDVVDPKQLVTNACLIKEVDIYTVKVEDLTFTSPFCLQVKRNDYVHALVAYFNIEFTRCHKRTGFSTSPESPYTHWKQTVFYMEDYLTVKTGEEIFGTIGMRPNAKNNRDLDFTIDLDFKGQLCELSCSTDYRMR
Compound,inhibition at 10 µM (PRMT1),inhibition at 10 µM (PRMT6),inhibition at 10 µM (PRMT4),inhibition at 10 µM (PRMT3),inhibition at 10 µM (PRMT8),IC50 (PRMT1; read-out: IC50 FOR PRMT1),IC50 (PRMT1; read-out: IC50[μM] | PRMT1),PRMT4 inhibition (PRMT4)
Nc1ncnc2c1ncn2[C@@H]1O[C@H](CSCCCNC(=O)NCc2ccc3c(c2)OCO3)[C@@H](O)[C@H]1O [Compound 7o],5%,89%,42%,5%,7%,,,
"Nc1ncnc2c1ncn2[C@@H]1O[C@H](CSCCNC(=O)NCCc2ccccc2)[C@@H](O)[C@H]1O [Compound 7c, 1-(2-((((2S,3S,4R,5R)-5-(6-amino-9H-purin-9-yl)-3,4-dihydroxytetrahydrofuran-2-yl)methyl)thio)ethyl)-3-phenethylurea]",8%,22%,53%,6%,-1%,,,
Nc1ccc(-c2ccc(CNC(=O)NCCSC[C@H]3O[C@@H](n4cnc5c(N)ncnc54)[C@H](O)[C@@H]3O)cc2)cc1 [Compound 8a],13%,72%,40%,3%,0%,,,
Nc1ncnc2c1ncn2[C@@H]1O[C@H](CSCCNC(=O)NCc2ccc(-c3cn[nH]c3)cc2)[C@@H](O)[C@H]1O [Compound 8g],2%,5%,19%,10%,5%,,,
Nc1ncnc2c1ncn2[C@@H]1O[C@H](CSCCCNC(=O)NCCc2ccccc2)[C@@H](O)[C@H]1O [Compound 7r],14%,49%,47%,6%,22%,,,
"Nc1ncnc2c1ncn2[C@@H]1O[C@H](CSCCNC(=O)NC2CCCCC2)[C@@H](O)[C@H]1O [Compound 7i, 1-(2-((((2S,3S,4R,5R)-5-(6-amino-9H-purin-9-yl)-3,4-dihydroxytetrahydrofuran-2-yl)methyl)thio)ethyl)-3-cyclohexylurea]",6%,-12%,34%,2%,-10%,,,
N=C(NCCCSC[C@H]1O[C@@H](n2cnc3c(N)ncnc32)[C@H](O)[C@@H]1O)NCc1ccccc1 [Compound 5e],95%,98%,97%,61%,97%,,0.21 ± 0.0066 µM,

# More lines, main results first:
inhibition at 10 µM (PRMT1),inhibition at 10 µM (PRMT6),inhibition at 10 µM (PRMT4),inhibition at 10 µM (PRMT3),inhibition at 10 µM (PRMT8),IC50 (PRMT1; read-out: IC50 FOR PRMT1),IC50 (PRMT1; read-out: IC50[μM] | PRMT1),Compound,PRMT4 inhibition (PRMT4)
7%,7%,22%,16%,28%,,,Nc1ncnc2c1ncn2[C@@H]1O[C@H](CSCCOc2ccc(-c3cncnc3)cc2)[C@@H](O)[C@H]1O [Compound 14e],
89%,79%,37%,13%,74%,1.3 ± 0.066 µM,,N=C(NCCCN)NCCCSC[C@H]1O[C@@H](n2cnc3c(NCCCc4ccccc4)ncnc32)[C@H](O)[C@@H]1O [Compound 19i],
10%,6%,48%,8%,15%,,,Nc1ncnc2c1ncn2[C@@H]1O[C@H](CSCCOc2ccc(-c3ccncc3)cc2)[C@@H](O)[C@H]1O [Compound 14h],
80%,93%,50%,8%,91%,0.55 ± 0.051 µM,,N=C(NCCCSC[C@H]1O[C@@H](n2cnc3c(NCCCc4ccccc4)ncnc32)[C@H](O)[C@@H]1O)NC1CCC1 [Compound 19c],
15%,55%,100%,13%,74%,,,Nc1ncnc2c1ncn2[C@@H]1O[C@H](CSCCNCc2cccc(-c3cccc(O)c3)c2)[C@@H](O)[C@H]1O [Compound 10i],
19%,55%,100%,1%,67%,,,Nc1ncnc2c1ncn2[C@@H]1O[C@H](CSCCNCc2cccc(-c3ccc(O)cc3)c2)[C@@H](O)[C@H]1O [Compound 10b],
5%,10%,35%,5%,39%,,,Nc1ncnc2c1ncn2[C@@H]1O[C@H](CSCCOc2ccc(-c3ccccc3O)cc2)[C@@H](O)[C@H]1O [Compound 14g],
11%,49%,100%,12%,68%,,,Nc1ncnc2c1ncn2[C@@H]1O[C@H](CSCCNCc2cccc(-c3cccc(F)c3)c2)[C@@H](O)[C@H]1O [Compound 10c],
94%,84%,47%,14%,85%,0.65 ± 0.062 µM,,CCCCNC(=N)NCCCSC[C@H]1O[C@@H](n2cnc3c(NCCCc4ccccc4)ncnc32)[C@H](O)[C@@H]1O [Compound 19a],
54%,66%,99%,25%,54%,,,Nc1ncnc2c1ncn2[C@@H]1O[C@H](CSCCCNCc2cccc(-c3ccoc3)c2)[C@@H](O)[C@H]1O [Compound 10p],
15%,43%,99%,10%,69%,,,Nc1ncnc2c1ncn2[C@@H]1O[C@H](CSCCNCc2cccc(-c3ccncc3)c2)[C@@H](O)[C@H]1O [Compound 10k],
2%,-4%,47%,9%,38%,,,Nc1ncnc2c1ncn2[C@@H]1O[C@H](CSCCOc2ccc(-c3ccc(Cl)cc3)cc2)[C@@H](O)[C@H]1O [Compound 14a],
86%,73%,23%,13%,69%,1.2 ± 0.052 µM,,N=C(NCCCSC[C@H]1O[C@@H](n2cnc3c(NCCCc4ccccc4)ncnc32)[C@H](O)[C@@H]1O)NC1CC1 [Compound 19b],
16%,57%,99%,16%,71%,,,Nc1ncnc2c1ncn2[C@@H]1O[C@H](CSCCNCc2cccc(-c3ccc(Cl)cc3)c2)[C@@H](O)[C@H]1O [Compound 10a],equal potency on PRMT4; also recorded: more potent PRMT4 inhibition activity than SGC8158
69%,87%,99%,22%,72%,,,Nc1ncnc2c1ncn2[C@@H]1O[C@H](CSCCCNCc2cccc(-c3cccc4cn[nH]c34)c2)[C@@H](O)[C@H]1O [Compound 10t],
